This passage reports GI50 and TGI results from PubChem BioAssay (NCI).

Structures are written as SMILES.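 Compound exposure: 48 hours, 5 concentrations, 96-well plates. Here, GI50 denotes the concentration required for 50% inhibition of growth. TGI denotes the concentration required for complete inhibition of growth.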

Test in all cases: growth of human tumour cells (NCI), 48 h
Assay [1] has as its system CCRF-CEM leukemia.
Assay [2] has as its system SK-MEL-28 melanoma.
Assay [3] deals with MOLT-4 leukemia.
The subject of assay [4] is KM12 colon.
Assay [5] concerns LOX IMVI melanoma.
For assay [6], the system named is MDA-MB-435.
In assay [7] the test system is A549 NSCLC.
For assay [8], the system named is NCI-H23 lung.
Assay [9] has as its system MALME-3M melanoma.
In assay [10] the test system is M14 melanoma.

Turning to `CC/C(=C(/c1ccc(O)cc1)c1ccc(OCCN)cc1)c1ccccc1`, the GI50 in assay [1] was 2.87 µM; in assay [2] it was 1.75 µM; in assay [3], 3 µM; in assay [4] it was 1.97 µM; in [5], 1.76 µM; in assay [6], 1.63 µM. The GI50 in assay [7] was 2.97 µM; in assay [8], 4.56 µM; in [9], 1.69 µM; in [10] it was 1.81 µM. The TGI in [1] worked out at 8.77 µM; in assay [2], 3.38 µM; in assay [3] it was 9.07 µM; in assay [4], 3.9 µM; in assay [5], 3.23 µM; in assay [6] it was 3.42 µM. Further, the TGI was determined as 8.81 µM in assay [7], 16.5 µM in assay [8], 3.53 µM in assay [9] and 3.48 µM in assay [10].

For the compound `Cc1nc(-c2nc(-c3ccc(OC(F)(F)F)cc3)no2)nn1Cc1cccc(N2CCC(S(C)(=O)=O)CC2)c1`, the GI50 in assay [1] was 7.41 µM; in assay [2], over 24.7 µM; in [3], 3.3 µM; in assay [4], over 52.6 µM; in [5], 0.012 µM; in assay [6], 2.9 µM. The GI50 was 4.62 µM in assay [7], under 0.01 µM in assay [8], over 34.3 µM in assay [9] and 5.66 µM in assay [10]. The TGI in [1], in [2], in assay [3], in assay [4], in assay [5] and in [6] was over 100 µM each time. Moreover, the TGI is over 100 µM in assay [7], over 100 µM in assay [8], over 76.8 µM in assay [9] and over 100 µM in [10].

Turning to `CCN1C(=O)N(CC)C2C1NN=c1s/c(=C\c3ccco3)c(=O)n12` (stereo not given), the GI50 was 0.368 µM in [1]; over 22.8 µM in assay [2]; 0.824 µM in assay [3]; 0.394 µM in [4]; 0.653 µM in assay [5]; 0.138 µM in [6]. Besides, the GI50 in assay [7] was 0.801 µM; in [8], 1.1 µM; in assay [9], 2.15 µM; in assay [10], 0.415 µM. The TGI in assay [1] was over 100 µM; in [2] it was over 100 µM; in assay [3], over 100 µM; in assay [4], over 100 µM; in [5], over 100 µM; in [6] it was 0.58 µM. The TGI was over 100 µM in assay [7], over 100 µM in assay [8], over 100 µM in assay [9] and over 35.5 µM in assay [10].

With `COc1cc2ncnc(Nc3cccc(Cl)c3F)c2cc1OC(=O)N1CCN(C)C[C@H]1C`, the GI50 in [1] was over 55.9 µM; in assay [2], over 42.2 µM; in assay [3], over 46.2 µM; in assay [4] it was over 50.5 µM; in [5] it was over 36.5 µM; in assay [6], over 40.7 µM. Moreover, the GI50 in assay [7] is over 34.3 µM; in assay [8] it was over 47.5 µM; in assay [9], over 39.5 µM; in assay [10], over 40.9 µM. Also, the TGI in assay [1] is over 100 µM; in [2] it was over 65.5 µM; in assay [3], over 81.3 µM; in [4] it was over 88.5 µM; in assay [5], over 53.8 µM; in assay [6], over 59.7 µM. Besides, the TGI in assay [7] is over 58.2 µM; in [8], 97.3 µM; in [9] it was over 60.6 µM; in [10] it was over 62.8 µM.

`c1ccc2cc(NCNc3ccc4ccccc4c3)ccc2c1`: the TGI in assay [1] was 62.6 µM; in assay [2] it was over 88.9 µM; in [3], 29.9 µM; in assay [4], 38.7 µM; in assay [5], 25.9 µM; in [6] it was 3.32 µM. Also, the TGI in assay [7] was determined as 47.5 µM; in assay [8] it was 30.5 µM; in assay [9] it was 20 µM; in assay [10], 29.1 µM.

Regarding `N/C(=N/N=C/c1ccccc1)N/N=C\c1ccccc1`, the GI50 is 5.13 µM in assay [1]; 10.7 µM in assay [2]; 4.39 µM in [3]; 2.76 µM in assay [4]; 6.27 µM in [5]; 1.76 µM in [6]. Besides, the GI50 in [7] was 3.79 µM; in assay [8], 6.78 µM; in [9], 6.84 µM; in assay [10], 3.4 µM. The TGI in assay [1] is over 100 µM; in assay [2], 33.3 µM; in [3], 47.3 µM; in assay [4] it was over 100 µM; in assay [5] it was 84.7 µM; in assay [6] it was 6.61 µM. Further, the TGI was over 100 µM in [7], over 100 µM in [8], 27.2 µM in assay [9] and 29.8 µM in assay [10].

Regarding `N=N/C(=C\c1c(O)[nH]c2ccccc12)c1ccccc1`, the TGI was 25.2 µM in assay [1]; over 100 µM in [2]; over 100 µM in assay [3]; over 89.2 µM in assay [4]; over 70.2 µM in assay [5]; 20.3 µM in assay [6]. Besides, the TGI in [7] is over 100 µM; in [8], over 87.8 µM; in [9], over 78 µM; in assay [10] it was over 65.9 µM.

As for `C[C@@H](NC(=O)/C(C#N)=C/c1ccc([N+](=O)[O-])cc1)c1ccccc1`, the GI50 in [1] was 2.56 µM; in [2], 1.95 µM; in assay [3], 3.02 µM; in [4], 2.07 µM; in assay [5], 1.94 µM; in [6], 2.7 µM. In addition, the GI50 in assay [7] is 2.94 µM; in [8], 2.08 µM; in [9], 2.92 µM; in assay [10], 2.05 µM. Moreover, the TGI in assay [1] was over 38.9 µM; in [2], 3.83 µM; in assay [3], 7.3 µM; in assay [4], 4.18 µM; in assay [5] it was 4.64 µM; in assay [6], 7.63 µM. The TGI is 8.37 µM in assay [7], 5.02 µM in [8], 8.31 µM in assay [9] and 4.42 µM in assay [10].

On to `CC1=NN(c2ccc(S(=O)(=O)O)cc2)C(=O)/C1=C/c1ccc(Cl)cc1`, for which the TGI in assay [1], in assay [2], in assay [3], in assay [4], in assay [5] and in assay [6] was over 100 µM in each case. Further, the TGI in assay [7], in assay [8], in [9] and in assay [10] was over 100 µM each time.
